Source: patent publication US20230363383A1, “COMBINATIONS OF CHLOROACETANILIDE HERBICIDES WITH SAFENERS” (UPL DO BRASIL INDUSTRIA E COMERCIO DE INSUMOS AGROPECUARIOS …, priority 2020, published 2023)
Where two headings read alike, the source gives them in different places.

Columns and labels:
Format in all cases: in vivo
wheat crop [1] = details: seed treatment, average of 4 replications
Description: (§1) Mode of application for herbicides was spray and they were applied to soil after sowing of untreated seeds or seeds treated with safeners.
as §1

Lolium multiflorum = test: % weed control of Lolium multiflorum, Propisochlor alone or with safener sprayed to soil; set-up: concentration or dose not given beside the values; details: spray to soil, average of 4 replications; for % Weed Control 7 DAA: 7 days after administration; for % Weed Control 14 DAA: 14 days after administration; for % Weed Control 21 DAA: 21 days after administration; for % Weed Control 28 DAA: 28 days after administration; for % Weed Control 35 DAA: 35 days after administration
Procedure: (§2) Experiments were carried out to evaluate the phytotoxicity, effect on plant height and effect on number of plants standing after treatments with combinations of one or more Chloroacetanilide herbicides with one or more safeners.
Below table gives summary of the formulation details and application details of Propisochlor and Mefenpyr-diethyl, Isoxadifen-ethyl and Cloquintocet-mexyl that were used in combination with Propisochlor for treatments. Application method was spray and applications were made to soil.
Below table gives summary of the formulation details and application details of Propisochlor and Dichlormid, Fenclorim, Benoxacor, Flurazole and Fluxofenim that were used in combination with Propisochlor for treatments. Application method was spray and applications were made to soil.
Below table gives summary of % weed control shown by untreated check, Propisochlor alone and combination of Propisochlor with Mefenpyr-diethyl, Isoxadifen-ethyl and Cloquintocet-mexyl at different application rates. % weed control was checked for weed Lolium multiflorum.
Below table gives summary of % weed control shown by untreated check, Propisochlor alone and combination of Propisochlor with Dichlormid, Fenclorim, Benoxacor, Flurazole and Fluxofenim at different application rates. % weed control was checked for weed Lolium multiflorum.

wheat crop [2] = details: spray to soil; for % Phytotoxicity 7 DAA: 7 days after administration; for % Phytotoxicity 7 DAA / % Phytotoxicity 14 DAA / % Phytotoxicity 21 DAA / % Phytotoxicity 28 DAA / % Phytotoxicity 35 DAA: average of 4 replications; for % Phytotoxicity 14 DAA: 14 days after administration; for % Phytotoxicity 21 DAA: 21 days after administration; for % Phytotoxicity 28 DAA: 28 days after administration; for % Phytotoxicity 35 DAA: 35 days after administration; for Plants Standing: untreated check 8.0 (Table 5) / 8.3 (Table 6)
Procedure: as §2
(§3) Application method was spray and applications were made to soil.
as §3

SMILES: N#Cc1nn(-c2c(Cl)cc(C(F)(F)F)cc2Cl)c(N)c1[S+]([O-])C(F)(F)F (stereo not shown) [Treatment 1b]
- Plant height 15 DAA (wheat crop [1]; Table 11, wheat crop, 15 DAA): 10.8
- Standing Plants 15 DAA (wheat crop [1]; Table 11, wheat crop, 15 DAA): 22.5
- Plant height 29 DAA (wheat crop [1]; Table 11, wheat crop, 29 DAA): 10.8
- Standing Plants 29 DAA (wheat crop [1]; Table 11, wheat crop, 29 DAA): 33.8
- % Phytotoxicity 7 DAA (wheat crop [1]; wheat crop, Propisochlor sprayed to soil after sowing, 7 DAA): 0%
- % Phytotoxicity 14 DAA (wheat crop [1]; wheat crop, Propisochlor sprayed to soil after sowing, 14 DAA): 0%
- % Phytotoxicity 21 DAA (wheat crop [1]; wheat crop, Propisochlor sprayed to soil after sowing, 21 DAA): 0%
- % Phytotoxicity 28 DAA (wheat crop [1]; wheat crop, Propisochlor sprayed to soil after sowing, 28 DAA): 0%
- % Phytotoxicity 35 DAA (wheat crop [1]; wheat crop, Propisochlor sprayed to soil after sowing, 35 DAA): 0%

SMILES: CCc1cccc(C)c1N(COC(C)C)C(=O)CCl [Treatment 2a]
- % Weed Control 7 DAA (Lolium multiflorum): 100%
- % Weed Control 14 DAA (Lolium multiflorum): 100%
- % Weed Control 21 DAA (Lolium multiflorum): 100%
- % Weed Control 28 DAA (Lolium multiflorum): 100%
- % Weed Control 35 DAA (Lolium multiflorum): 100%
- % Phytotoxicity 7 DAA (wheat crop [2]): 98.0%
- % Phytotoxicity 14 DAA (wheat crop [2]): 99.0%
- % Phytotoxicity 21 DAA (wheat crop [2]): 99.5%
- % Phytotoxicity 28 DAA (wheat crop [2]): 99.5%
- % Phytotoxicity 35 DAA (wheat crop [2]): 99.0%
- Plants Standing (wheat crop [2]): 0.5

SMILES: N#Cc1nn(-c2c(Cl)cc(C(F)(F)F)cc2Cl)c(N)c1[S+]([O-])C(F)(F)F (stereo not shown) [Treatment 9b]
- Plant height 15 DAA (wheat crop [1]; Table 12, 15 DAA): 23.3
- Standing Plants 15 DAA (wheat crop [1]; Table 12, 15 DAA): 10.8
- Plant height 29 DAA (wheat crop [1]; Table 12, 29 DAA): 34.3
- Standing Plants 29 DAA (wheat crop [1]; Table 12, 29 DAA): 10.8
- % Phytotoxicity 8 DAA (wheat crop [1]; wheat crop, Propisochlor sprayed to soil after sowing, 8 DAA): 0%
- % Phytotoxicity 15 DAA (wheat crop [1]; wheat crop, Propisochlor sprayed to soil after sowing, 15 DAA): 0%
- % Phytotoxicity 22 DAA (wheat crop [1]; wheat crop, Propisochlor sprayed to soil after sowing, 22 DAA): 0%
- % Phytotoxicity 29 DAA (wheat crop [1]; wheat crop, Propisochlor sprayed to soil after sowing, 29 DAA): 0%
- % Phytotoxicity 36 DAA (wheat crop [1]; wheat crop, Propisochlor sprayed to soil after sowing, 36 DAA): 0%

SMILES: CCc1cccc(C)c1N(COC(C)C)C(=O)CCl [Treatment 10a]
- % Weed Control 7 DAA (Lolium multiflorum): 100.0%
- % Weed Control 14 DAA (Lolium multiflorum): 100.0%
- % Weed Control 21 DAA (Lolium multiflorum): 100.0%
- % Weed Control 28 DAA (Lolium multiflorum): 99.3%
- % Weed Control 35 DAA (Lolium multiflorum): 99.0%
- % Phytotoxicity 7 DAA (wheat crop [2]): 99.5%
- % Phytotoxicity 14 DAA (wheat crop [2]): 100%
- % Phytotoxicity 21 DAA (wheat crop [2]): 100%
- % Phytotoxicity 28 DAA (wheat crop [2]): 100%
- % Phytotoxicity 35 DAA (wheat crop [2]): 100%
- Plants Standing (wheat crop [2]): 0.0
